Data reported in publication PMC9293909 (Nature Communications, 2022).
Blank lines part the entries; values can stand above or below the molecule they belong to.

Key:
[1] = tested on: postsynaptic A1Rs, CA1 pyramidal cells; test: Whole-cell patch-clamp, membrane potential of CA1 pyramidal cells; format: cell-based, rat; conditions: 1 µM
Experimental: (§1) Rats were kept on a 12-hour light-dark cycle with slices made 90 min after entering the light cycle. […] The brain was removed, cut down the midline and the two sides of the brain stuck down to a metal base plate using cyanoacrylate glue. […] Slices were stored at 34 °C for 1–6 h in aCSF (1 mM MgCl2, 2 mM CaCl2) before use.
A slice was transferred to the recording chamber and perfused at 3 ml min^−1 with aCSF at 32 ± 0.5 °C. Slices were visualised using IR-DIC optics with an Olympus BX151W microscope (Scientifica) and a CCD camera (Hitachi). […] Voltage and current recordings were obtained using an Axon Multiclamp 700B amplifier (Molecular Devices, USA) and digitised at 20 KHz. Data acquisition and analysis was performed using pClamp 10 (Molecular Devices, USA). For voltage-clamp experiments, CA1 pyramidal cells were held at −60 mV. Peptides to interfere with G protein signalling were introduced via the patch pipette into the recorded cell.

[2] = tested on: native presynaptic A1Rs, rat hippocampal slices; test: Extracellular fEPSP recording, inhibition of excitatory synaptic transmission in hippocampal slices; format: cell-based
Experimental: as §1
A slice was transferred to the recording chamber, submerged in aCSF and perfused at 4–6 ml min^−1 (32 ± 0.5 °C). The slice was placed on a grid allowing perfusion above and below the tissue and all tubing was gastight (to prevent loss of oxygen). […] Field excitatory postsynaptic potentials (fEPSPs) were evoked with either an isolated pulse stimulator model 2100 (AM Systems, WA) or ISO-Flex (AMPI, Jerusalem, Israel). For fEPSPs a 10–20 min baseline was recorded at a stimulus intensity that gave 40-50% of the maximal response. […] For fEPSP slope, a 1 ms linear region after the fibre volley was measured. Extracellular recordings were made independently on two electrophysiology rigs.
Statistical significance was tested as indicated in the text using paired or unpaired two-tailed t-tests or one-way or two-way ANOVAs with repeated measures (RM) as appropriate. Bonferroni corrections for multiple comparisons were performed. All in vitro cell signalling assay data was analysed using Prism 8.4 (Graphpad software, San Diego, CA), with all concentration-response curves being fitted using a 3 parameter logistic equation to calculate response range and IC50. All cAMP data was normalised to a forskolin concentration-response curve ran in parallel to each assay.

[3] = Half-life determination in PBS; format: physicochemical; conditions: PBS, pH 7.4
Experimental: […] Samples were analysed by HPLC-MS/MS and corresponding peak areas were recorded for each analyte. The ratio of precursor compound remaining after each time-point relative to the amount present at time 0, expressed as a percentage, is reported as chemical stability.

[4] = in vitro; conditions: human, plasma
Experimental: (§2) At the end of incubation at each of the time points (0, 0.5, 1, 1.5, 2 h), acetonitrile was added to the incubation mixture followed by centrifugation. Samples were analysed by HPLC-MS/MS and peak areas were recorded for each analyte. The area of precursor compound remaining after each of the time points relative to the amount remaining at time 0, expressed as a percentage, was calculated. Subsequently, the t1/2 is estimated from the slope of the initial linear range of the logarithmic curve of compound remaining (%) versus time, assuming first-order kinetics.

[5] = Half-life determination in human plasma; conditions: UoBern01 at 1.00E-06 M
Experimental: as §2

[6] = incubation 0 minutes, UoBern01 at 1.00E-06 M
[7] = incubation 60 minutes, UoBern01 at 1.00E-06 M
[8] = incubation 120 minutes, UoBern01 at 1.00E-06 M

SMILES: CNC(=O)[C@H]1O[C@@H](n2cnc3c(NCc4cccc(I)c4)nc(Cl)nc32)[C@H](O)[C@@H]1O [2-Cl-IB-MECA]
- effect on membrane potential [1]: had no effect on membrane potential

SMILES: OC[C@H]1O[C@@H](n2cnc3c(N[C@@H]4CCC[C@H]4OCc4ccccc4)ncnc32)[C@H](O)[C@@H]1O [BnOCPA, (2 R,3 R,4 S,5 R)−2-(6-{[(1 R,2 R)−2-benzyloxycyclopentyl]amino}−9H-purin-9-yl)−5-(hydroxymethyl)oxolane-3,4-diol]
- time constant of inhibition of synaptic transmission (single exponential) ([2]; 300 nM): 2.2 min

SMILES: CCNC(=O)[C@H]1O[C@@H](n2cnc3c(N)ncnc32)[C@H](O)[C@@H]1O [NECA, 5′-(N-Ethylcarboxamido) adenosine]
- IC50 ([2]; fEPSP, rat hippocampal slices, read-out: IC50 inhibition of synaptic transmission): 8.3 ± 3 nM

- Mean / Half-Life ([3]; UoBern01 at 1.00E-06 M): >120 min
- 1st / % Compound Remaining [3, 6]: 100%
- 2nd / % Compound Remaining [3, 6]: 100%
- Mean / % Compound Remaining [3, 6]: 100%
- 1st / % Compound Remaining ([3]; incubation 30 minutes): 95.1%
- 2nd / % Compound Remaining ([3]; incubation 30 minutes): 97.9%
- Mean / % Compound Remaining ([3]; incubation 30 minutes): 96.5%
- 1st / % Compound Remaining [3, 7]: {129.3} %
- 2nd / % Compound Remaining [3, 7]: 96.1%
- Mean / % Compound Remaining [3, 7]: 96.1%
- 1st / % Compound Remaining ([3]; incubation 90 minutes): 86.5%
- 2nd / % Compound Remaining ([3]; incubation 90 minutes): 89.2%
- Mean / % Compound Remaining ([3]; incubation 90 minutes): 87.8%
- 1st / % Compound Remaining [3, 8]: {72.3} %
- 2nd / % Compound Remaining [3, 8]: 76.6%
- Mean / % Compound Remaining [3, 8]: 76.6%
- half-life ([3]; read-out: 1st / Half-Life): > 120 min
- half-life [4]: 46.9 min
- 2nd / Half-Life [5]: 50.4 min
- Mean / Half-Life [5]: 49 min
- 1st / % Compound Remaining ([5]; incubation 0 minutes): 100%
- 2nd / % Compound Remaining ([5]; incubation 0 minutes): 100%
- Mean / % Compound Remaining ([5]; incubation 0 minutes): 100%
- 1st / % Compound Remaining ([5]; incubation 30 minutes): 69.6%
- 2nd / % Compound Remaining ([5]; incubation 30 minutes): 53.9%
- Mean / % Compound Remaining ([5]; incubation 30 minutes): 61.7%
- 1st / % Compound Remaining ([5]; incubation 60 minutes): 44.8%
- 2nd / % Compound Remaining ([5]; incubation 60 minutes): 36.9%
- Mean / % Compound Remaining ([5]; incubation 60 minutes): 40.9%
- 1st / % Compound Remaining ([5]; incubation 90 minutes): 29.3%
- 2nd / % Compound Remaining ([5]; incubation 90 minutes): 22.6%
- Mean / % Compound Remaining ([5]; incubation 90 minutes): 26%
- 1st / % Compound Remaining ([5]; incubation 120 minutes): 16.8%
- 2nd / % Compound Remaining ([5]; incubation 120 minutes): 19.6%
- Mean / % Compound Remaining ([5]; incubation 120 minutes): 18.2%
SMILES: CC(C)[N+](C)(CCOC(=O)C1c2ccccc2Oc2ccccc21)C(C)C [Propantheline]
